Experimental data from US20080009418A1, “Selective Inhibitors” (Alchemia LTD., priority 2004, published 2008).

How the values were obtained:
Human δ-opioid (DOP) = target: T1, Human δ-opioid (DOP) (Homo sapiens, UniProt P41143); test: Radioligand binding, human δ-opioid (DOP) membranes, FlashPlate, [3H]-Bremazocine; settings: compound at 10 μM; for A1: inhibition of radioligand binding: human DOP membranes
T1 construct: purchased Perkin Elmer Biosignal
Summary of the method: (§1)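 Cloned human receptor membranes were coated onto FlashPlate wells and incubated with radioligand and compound (added from a 0.5 mM DMSO daughter plate) for 1 hour at room temperature in the dark. Scintillation counting gave percent inhibition, with DMSO defining total and reference ligand defining non-specific binding.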

Human κ-Opioid (KOP) = target: T2, Human κ-Opioid (KOP) (Homo sapiens, UniProt P41145); test: Radioligand binding, human κ-opioid (KOP) membranes, filtration, [3H]-Diprenorphine; settings: compound at 10 μM; for A2: inhibition of radioligand binding: human KOP membranes
T2 construct: purchased Perkin Elmer Biosignal
T2 sequence (P41145 whole entry): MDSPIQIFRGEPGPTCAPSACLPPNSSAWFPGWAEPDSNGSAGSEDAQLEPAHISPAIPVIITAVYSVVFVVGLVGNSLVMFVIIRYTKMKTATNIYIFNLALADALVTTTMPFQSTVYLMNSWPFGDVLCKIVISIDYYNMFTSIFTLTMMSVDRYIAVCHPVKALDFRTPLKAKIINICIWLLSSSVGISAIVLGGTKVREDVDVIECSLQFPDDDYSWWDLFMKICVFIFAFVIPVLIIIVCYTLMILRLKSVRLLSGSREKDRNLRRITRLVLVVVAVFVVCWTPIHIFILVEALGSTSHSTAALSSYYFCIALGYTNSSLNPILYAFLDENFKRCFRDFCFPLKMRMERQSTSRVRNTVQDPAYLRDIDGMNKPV
Summary of the method: (§2)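 Membranes from cloned human receptors were incubated with compound and radioligand for 1 hour at room temperature. Bound ligand was collected on 0.3% PEI-soaked filters, washed with cold 50 mM Tris-HCl pH 7.4, and counted by scintillation. Percent inhibition was computed against DMSO totals and reference-ligand nonspecific wells.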

Human Melanocortin (MC3) = target: T3, Human Melanocortin (MC3) (Homo sapiens, UniProt P41968); test: Radioligand binding, human melanocortin MC3 membranes, FlashPlate, [125I]-NDP-αMSH; settings: compound at 10 μM; for A3: inhibition of radioligand binding: human MC3 membranes
T3 construct: purchased Perkin Elmer Biosignal
T3 sequence (P41968 whole entry): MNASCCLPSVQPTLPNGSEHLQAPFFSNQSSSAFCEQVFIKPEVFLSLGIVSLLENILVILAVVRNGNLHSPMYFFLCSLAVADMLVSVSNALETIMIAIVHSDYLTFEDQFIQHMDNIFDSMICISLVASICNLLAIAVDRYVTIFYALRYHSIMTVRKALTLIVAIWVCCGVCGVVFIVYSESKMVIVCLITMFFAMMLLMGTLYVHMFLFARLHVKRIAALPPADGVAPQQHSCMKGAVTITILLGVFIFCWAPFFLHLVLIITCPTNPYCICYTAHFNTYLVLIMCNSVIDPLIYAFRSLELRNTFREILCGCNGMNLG
Summary of the method: as §1

Human Melanocortin (MC4) = target: T4, Human Melanocortin (MC4) (Homo sapiens, UniProt P32245); test: Radioligand binding, human melanocortin MC4 membranes, FlashPlate, [125I]-NDP-αMSH; settings: compound at 10 μM; for A4: inhibition of radioligand binding: human MC4 membranes
T4 construct: purchased Perkin Elmer Biosignal
T4 sequence (P32245 whole entry): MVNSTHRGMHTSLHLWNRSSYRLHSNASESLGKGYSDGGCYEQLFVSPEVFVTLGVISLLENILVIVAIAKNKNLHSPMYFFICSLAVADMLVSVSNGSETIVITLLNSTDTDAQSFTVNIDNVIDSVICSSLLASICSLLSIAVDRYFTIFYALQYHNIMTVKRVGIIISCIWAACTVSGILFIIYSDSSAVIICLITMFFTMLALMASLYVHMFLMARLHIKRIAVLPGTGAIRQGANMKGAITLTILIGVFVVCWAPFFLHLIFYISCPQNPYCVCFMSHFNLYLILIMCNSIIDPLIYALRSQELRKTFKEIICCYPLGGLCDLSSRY
Summary of the method: as §1

Human melanocortin (MC5) = target: T5, Human melanocortin (MC5) (Homo sapiens, UniProt P33032); test: Radioligand binding, human melanocortin MC5 membranes, FlashPlate, [125I]-NDP-αMSH; settings: compound at 10 μM; for A5: inhibition of radioligand binding: human MC5 membranes
T5 construct: purchased Perkin Elmer Biosignal
T5 sequence (P33032 whole entry): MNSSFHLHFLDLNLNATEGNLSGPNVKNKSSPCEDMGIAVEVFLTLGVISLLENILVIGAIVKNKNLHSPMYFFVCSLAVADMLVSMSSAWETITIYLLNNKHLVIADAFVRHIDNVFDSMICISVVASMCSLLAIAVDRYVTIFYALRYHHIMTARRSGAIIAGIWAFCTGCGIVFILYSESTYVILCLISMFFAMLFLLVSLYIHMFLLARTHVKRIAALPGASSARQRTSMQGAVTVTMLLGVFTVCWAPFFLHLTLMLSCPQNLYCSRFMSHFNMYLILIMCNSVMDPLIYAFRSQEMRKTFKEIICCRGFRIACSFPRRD
Summary of the method: as §1

[1] = target: T6, Human melanin-concentrating hormone (MCH1) (Homo sapiens, UniProt Q99705); test: Radioligand binding, human melanin-concentrating hormone MCH1 membranes, FlashPlate, [125I]-S36057; settings: compound at 10 μM; for A6: inhibition of radioligand binding: [125I]-S36057, human MCH1 membranes
T6 construct: purchased Perkin Elmer Biosignal
T6 sequence (Q99705 whole entry): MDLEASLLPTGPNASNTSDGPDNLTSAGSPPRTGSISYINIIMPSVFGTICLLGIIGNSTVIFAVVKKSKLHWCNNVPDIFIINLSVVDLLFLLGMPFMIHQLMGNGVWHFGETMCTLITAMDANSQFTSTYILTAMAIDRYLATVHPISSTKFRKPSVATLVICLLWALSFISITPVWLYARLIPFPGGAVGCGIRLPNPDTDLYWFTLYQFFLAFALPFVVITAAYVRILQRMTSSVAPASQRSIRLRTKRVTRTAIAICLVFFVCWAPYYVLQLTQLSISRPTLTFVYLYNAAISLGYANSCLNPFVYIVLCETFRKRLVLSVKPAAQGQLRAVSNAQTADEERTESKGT
Summary of the method: as §1

Human μ-opioid (MOP) = target: T7, Human μ-opioid (MOP) (Homo sapiens, UniProt P35372); test: Radioligand binding, human μ-opioid (MOP) membranes, FlashPlate, [3H]-Naloxone; settings: compound at 10 μM; for A7: inhibition of radioligand binding: human MOP membranes
T7 construct: purchased Perkin Elmer Biosignal
T7 sequence (P35372 whole entry): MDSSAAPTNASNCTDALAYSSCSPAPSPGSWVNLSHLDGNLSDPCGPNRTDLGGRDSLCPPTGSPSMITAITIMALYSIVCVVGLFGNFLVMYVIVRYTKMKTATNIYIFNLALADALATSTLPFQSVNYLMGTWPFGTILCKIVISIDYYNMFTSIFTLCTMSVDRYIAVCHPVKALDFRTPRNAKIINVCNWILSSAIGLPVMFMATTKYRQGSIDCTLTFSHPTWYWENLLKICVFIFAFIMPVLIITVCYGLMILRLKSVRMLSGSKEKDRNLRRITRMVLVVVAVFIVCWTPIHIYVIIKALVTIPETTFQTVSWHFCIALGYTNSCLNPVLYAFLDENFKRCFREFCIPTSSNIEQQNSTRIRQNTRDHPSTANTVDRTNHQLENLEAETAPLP
Summary of the method: as §1

Human neurokinin (NK1) = target: T8, Human neurokinin (NK1) (Homo sapiens, UniProt P25103); test: Radioligand binding, human neurokinin NK1 membranes, filtration, [125I]-Substance P; settings: compound at 10 μM; for A8: inhibition of radioligand binding: human NK1 membranes
T8 construct: purchased Perkin Elmer Biosignal
T8 sequence (P25103 whole entry): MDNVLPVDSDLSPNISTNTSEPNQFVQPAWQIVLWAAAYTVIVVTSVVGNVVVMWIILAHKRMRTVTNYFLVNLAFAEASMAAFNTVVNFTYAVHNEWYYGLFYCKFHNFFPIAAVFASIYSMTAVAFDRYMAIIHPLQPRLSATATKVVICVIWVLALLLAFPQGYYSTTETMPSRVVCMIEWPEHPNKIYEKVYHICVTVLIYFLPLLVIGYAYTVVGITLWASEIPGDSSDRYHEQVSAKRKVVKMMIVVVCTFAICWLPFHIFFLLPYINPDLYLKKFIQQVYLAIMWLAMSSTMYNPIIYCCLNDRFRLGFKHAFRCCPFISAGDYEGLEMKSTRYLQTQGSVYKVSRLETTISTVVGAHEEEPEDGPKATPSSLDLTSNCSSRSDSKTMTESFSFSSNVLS
Summary of the method: as §2

[2] = target: T9, Human neuropeptide Y (NPY-Y1) (Homo sapiens, UniProt P25929); test: Radioligand binding, human neuropeptide Y NPY-Y1 membranes, FlashPlate, [125I]-PYY; settings: compound at 10 μM
T9 construct: purchased Perkin Elmer Biosignal
T9 sequence (P25929 1-384): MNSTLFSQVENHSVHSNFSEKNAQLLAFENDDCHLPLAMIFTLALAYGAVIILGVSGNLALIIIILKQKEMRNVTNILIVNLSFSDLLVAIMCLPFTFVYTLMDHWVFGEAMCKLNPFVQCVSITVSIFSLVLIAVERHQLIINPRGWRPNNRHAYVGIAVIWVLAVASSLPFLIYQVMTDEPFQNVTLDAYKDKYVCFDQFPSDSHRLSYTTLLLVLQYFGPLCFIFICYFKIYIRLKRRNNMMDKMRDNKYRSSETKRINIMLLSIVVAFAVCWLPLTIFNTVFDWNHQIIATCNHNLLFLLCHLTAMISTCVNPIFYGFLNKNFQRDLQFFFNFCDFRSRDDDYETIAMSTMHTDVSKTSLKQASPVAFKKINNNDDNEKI
Summary of the method: as §1

Human opioid (ORL1) = target: T10, Human opioid (ORL1) (Homo sapiens, UniProt P41146); test: Radioligand binding, human opioid ORL1 membranes, FlashPlate, [125I]-Nociceptin; settings: compound at 10 μM
T10 construct: purchased Perkin Elmer Biosignal
T10 sequence (P41146 whole entry): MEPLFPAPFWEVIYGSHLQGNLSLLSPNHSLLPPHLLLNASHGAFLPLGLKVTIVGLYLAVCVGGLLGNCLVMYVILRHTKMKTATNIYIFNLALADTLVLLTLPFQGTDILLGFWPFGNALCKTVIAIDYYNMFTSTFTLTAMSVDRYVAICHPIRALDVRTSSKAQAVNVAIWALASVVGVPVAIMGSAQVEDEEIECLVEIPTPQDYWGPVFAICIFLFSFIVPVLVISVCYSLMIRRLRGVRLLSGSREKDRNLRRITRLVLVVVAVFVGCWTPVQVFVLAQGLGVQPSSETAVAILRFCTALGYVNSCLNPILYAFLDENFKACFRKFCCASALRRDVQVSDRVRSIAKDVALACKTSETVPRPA
Summary of the method: as §1

Mouse urotensin (mUR2) = target: T11, Mouse urotensin (mUR2) (Mus musculus, UniProt Q8VIH9); test: Radioligand binding, mouse urotensin mUR2 membranes, FlashPlate, [125I]-Urotensin II; settings: compound at 10 μM; for A11: inhibition of radioligand binding: mouse mUR2 membranes
T11 construct: purchased Perkin Elmer Biosignal
T11 sequence (Q8VIH9 1-385): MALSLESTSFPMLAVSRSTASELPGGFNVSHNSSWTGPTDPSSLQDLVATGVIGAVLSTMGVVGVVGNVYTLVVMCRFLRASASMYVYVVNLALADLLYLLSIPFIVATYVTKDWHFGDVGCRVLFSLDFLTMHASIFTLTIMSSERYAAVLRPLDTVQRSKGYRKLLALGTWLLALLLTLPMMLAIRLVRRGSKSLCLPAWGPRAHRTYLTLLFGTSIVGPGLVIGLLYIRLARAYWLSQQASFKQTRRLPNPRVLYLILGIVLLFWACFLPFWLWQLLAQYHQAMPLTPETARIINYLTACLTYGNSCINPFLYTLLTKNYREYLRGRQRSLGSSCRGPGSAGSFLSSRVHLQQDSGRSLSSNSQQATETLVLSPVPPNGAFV
Summary of the method: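 Cloned mouse urotensin (mUR2) receptor membranes from Perkin Elmer Biosignal were immobilized in FlashPlate microplates using a proprietary coating. Each well got 19.5 μl buffer, then 0.5 μl of DMSO, reference ligand, or compound. Adding 5 μl of [125I]-Urotensin II, diluted to 5× final concentration in binding buffer, started binding. Plates were sealed with TopSeal-A and incubated 1 hour at room temperature in the dark. Wells were counted for 30 seconds each on a TopCount after a 60-second delay, and percentage inhibition was calculated.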

[3] = [125I]-PYY, human NPY-Y1 membranes
[4] = [125I]-Nociceptin, human ORL1 membranes

T1 sequence (P41143 whole entry): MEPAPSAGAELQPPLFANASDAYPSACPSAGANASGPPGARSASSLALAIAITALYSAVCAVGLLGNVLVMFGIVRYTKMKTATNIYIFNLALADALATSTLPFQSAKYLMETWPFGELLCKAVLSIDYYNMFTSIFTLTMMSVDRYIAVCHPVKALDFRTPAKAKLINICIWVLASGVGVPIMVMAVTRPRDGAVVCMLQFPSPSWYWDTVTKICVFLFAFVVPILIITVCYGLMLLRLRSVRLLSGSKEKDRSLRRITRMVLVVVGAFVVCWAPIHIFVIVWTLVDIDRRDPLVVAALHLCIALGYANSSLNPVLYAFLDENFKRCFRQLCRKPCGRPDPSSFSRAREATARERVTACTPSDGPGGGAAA

Row | SMILES | A1: inhibition of radioligand binding (Human δ-opioid (DOP); [3H]-Bremazocine) | A2: inhibition of radioligand binding (Human κ-Opioid (KOP); [3H]-Diprenorphine) | A3: inhibition of radioligand binding (Human Melanocortin (MC3); [125I]-NDP-αMSH) | A4: inhibition of radioligand binding (Human Melanocortin (MC4); [125I]-NDP-αMSH) | A5: inhibition of radioligand binding (Human melanocortin (MC5); [125I]-NDP-αMSH) | A6: inhibition of radioligand binding [1] | A7: inhibition of radioligand binding (Human μ-opioid (MOP); [3H]-Naloxone) | A8: inhibition of radioligand binding (Human neurokinin (NK1); [125I]-Substance P) | A9: inhibition of radioligand binding [2, 3] | A10: inhibition of radioligand binding (Human opioid (ORL1); [4]) | A11: inhibition of radioligand binding (Mouse urotensin (mUR2); [125I]-Urotensin II) | also measured
1 | N=C(N)NCC(=O)NC1C(OCc2ccc(-c3ccccc3)cc2)OC(COCc2ccc3ccccc3c2)C(O)C1OCc1ccc2ccccc2c1 (stereo not shown) [compound 402] | − (“−” indicates less than 50% inhibition at 10 μM) | − (“−” indicates less than 50% inhibition at 10 μM) | + (“+” indicates greater than 50% inhibition at 10 μM) | + (“+” indicates greater than 50% inhibition at 10 μM) | + (“+” indicates greater than 50% inhibition at 10 μM) | + (“+” indicates greater than 50% inhibition at 10 μM) | − (“−” indicates less than 50% inhibition at 10 μM) | + (“+” indicates greater than 50% inhibition at 10 μM) | − (“−” indicates less than 50% inhibition at 10 μM) | + (“+” indicates greater than 50% inhibition at 10 μM) | − (“−” indicates less than 50% inhibition at 10 μM) | 
2 | N=C(N)NCC(=O)NC1C(OCc2ccc(-c3ccccc3)cc2)OC(COCc2ccccc2)C(O)C1OCc1ccc(-c2ccccc2)cc1 (stereo not shown) [compound 406] | − (“−” indicates less than 50% inhibition at 10 μM) | − (“−” indicates less than 50% inhibition at 10 μM) | + (“+” indicates greater than 50% inhibition at 10 μM) | + (“+” indicates greater than 50% inhibition at 10 μM) | + (“+” indicates greater than 50% inhibition at 10 μM) | − (“−” indicates less than 50% inhibition at 10 μM) | − (“−” indicates less than 50% inhibition at 10 μM) | + (“+” indicates greater than 50% inhibition at 10 μM) | − (“−” indicates less than 50% inhibition at 10 μM) | + (“+” indicates greater than 50% inhibition at 10 μM) | − (“−” indicates less than 50% inhibition at 10 μM) | 
3 | COC[C@H]1OC(OCCc2ccccc2)[C@H](NC(=O)CCCN)[C@@H](OCc2ccc3ccccc3c2)[C@@H]1O (single isomer, unassigned) [compound 346] |  |  |  |  |  |  |  |  |  |  |  | A1: inhibition of radioligand binding, human δ-opioid (DOP) (Human δ-opioid (DOP); [3H]-Bremazocine): − (“−” indicates less than 50% inhibition at 10 μM); A2: inhibition of radioligand binding, human κ-opioid (KOP) (Human κ-Opioid (KOP); [3H]-Diprenorphine, 10 µM): + (“+” indicates greater than 50% inhibition at 10 μM); A3: inhibition of radioligand binding, human melanocortin (MC3) (Human Melanocortin (MC3); [125I]-NDP-αMSH, 10 µM): + (“+” indicates greater than 50% inhibition at 10 μM); A4: inhibition of radioligand binding, human melanocortin (MC4) (Human Melanocortin (MC4); [125I]-NDP-αMSH, 10 µM): + (“+” indicates greater than 50% inhibition at 10 μM); A5: inhibition of radioligand binding, human melanocortin (MC5) (Human melanocortin (MC5); [125I]-NDP-αMSH, 10 µM): + (“+” indicates greater than 50% inhibition at 10 μM); A6: inhibition of radioligand binding, human melanin-concentrating hormone (MCH1) ([1]; [125I]-S36057, 10 µM): + (“+” indicates greater than 50% inhibition at 10 μM); A7: inhibition of radioligand binding, human μ-opioid (MOP) (Human μ-opioid (MOP); [3H]-Naloxone, 10 µM): + (“+” indicates greater than 50% inhibition at 10 μM); A8: inhibition of radioligand binding, human neurokinin (NK1) (Human neurokinin (NK1); [125I]-Substance P): + (“+” indicates greater than 50% inhibition at 10 μM); A9: inhibition of radioligand binding, human neuropeptide Y (NPY-Y1) ([2]; [125I]-PYY): − (“−” indicates less than 50% inhibition at 10 μM); A10: inhibition of radioligand binding, human opioid (ORL1) (Human opioid (ORL1); [125I]-Nociceptin, 10 µM): + (“+” indicates greater than 50% inhibition at 10 μM); A11: inhibition of radioligand binding, mouse urotensin (mUR2) (Mouse urotensin (mUR2); [125I]-Urotensin II, 10 µM): + (“+” indicates greater than 50% inhibition at 10 μM)
4 | NCCCC(=O)NC1C(OCc2ccc3ccccc3c2)OC(COCc2ccccc2)C(O)C1OCc1ccc(Cl)cc1 (single isomer, unassigned) [compound 456] | − (“−” indicates less than 50% inhibition at 10 μM) | − (“−” indicates less than 50% inhibition at 10 μM) | − (“−” indicates less than 50% inhibition at 10 μM) |  |  |  |  | + (“+” indicates greater than 50% inhibition at 10 μM) | − (“−” indicates less than 50% inhibition at 10 μM) |  | − (“−” indicates less than 50% inhibition at 10 μM) | A4: inhibition of radioligand binding (Human Melanocortin (MC4); [125I]-NDP-αMSH, 10 µM): − (“−” indicates less than 50% inhibition at 10 μM); A5: inhibition of radioligand binding (Human melanocortin (MC5); [125I]-NDP-αMSH, 10 µM): + (“+” indicates greater than 50% inhibition at 10 μM); A6: inhibition of radioligand binding ([1]; 10 µM): + (“+” indicates greater than 50% inhibition at 10 μM); A7: inhibition of radioligand binding (Human μ-opioid (MOP); [3H]-Naloxone, 10 µM): − (“−” indicates less than 50% inhibition at 10 μM); A10: inhibition of radioligand binding (Human opioid (ORL1); [125I]-Nociceptin, human ORL1 membranes, 10 µM): − (“−” indicates less than 50% inhibition at 10 μM)
5 | CO[C@H]1[C@H](O)[C@@H](COCc2ccc(-c3ccccc3)cc2)OC(OCc2ccccc2)[C@@H]1NC(=O)CCCNC(=N)N (stereo partly shown) [compound 85] |  |  |  |  |  |  |  |  |  |  |  | A1 radioligand binding inhibition (Human δ-opioid (DOP); human δ-opioid (DOP) membranes): − (“−” indicates less than 50% inhibition at 10 μM); A2 radioligand binding inhibition (Human κ-Opioid (KOP); human κ-opioid (KOP) membranes): − (“−” indicates less than 50% inhibition at 10 μM); A3 radioligand binding inhibition (Human Melanocortin (MC3); human melanocortin MC3 membranes): + (“+” indicates greater than 50% inhibition at 10 μM); A4 radioligand binding inhibition (Human Melanocortin (MC4); human melanocortin MC4 membranes): + (“+” indicates greater than 50% inhibition at 10 μM); A5 radioligand binding inhibition (Human melanocortin (MC5); human melanocortin MC5 membranes): + (“+” indicates greater than 50% inhibition at 10 μM); A6 radioligand binding inhibition ([1]; human MCH1 membranes): + (“+” indicates greater than 50% inhibition at 10 μM); A7 radioligand binding inhibition (Human μ-opioid (MOP); human μ-opioid (MOP) membranes): + (“+” indicates greater than 50% inhibition at 10 μM); A8 radioligand binding inhibition (Human neurokinin (NK1); human neurokinin NK1 membranes): + (“+” indicates greater than 50% inhibition at 10 μM); A9 radioligand binding inhibition ([2]; human NPY-Y1 membranes): − (“−” indicates less than 50% inhibition at 10 μM); A10 radioligand binding inhibition (Human opioid (ORL1); human ORL1 membranes): + (“+” indicates greater than 50% inhibition at 10 μM); A11 radioligand binding inhibition (Mouse urotensin (mUR2); mouse urotensin mUR2 membranes): − (“−” indicates less than 50% inhibition at 10 μM)
